According to US9777015B2, “Useful thiophene derivatives in the treatment of diabetes” (METABRAIN RESEARCH, priority 2012, dated 2017):
Where a name gives a salt, the structure may show the parent alone. Read-outs that look alike come from different tables or passages of the source.

Tests used:
INS-1 cells = assay: Stimulation test of insulin secretion by INS-1 cells; assay type: cell-based; settings: Rattus norvegicus, 1 h incubation, 3.5 mM glucose; for activity at 10 µM: INS1, compound at 10 μM, read-out: INS-1 % of ctrl @ 10 μM; for activity at 50 µM: INS1, compound at 50 μM, read-out: INS-1 % of ctrl @ 50 μM
Procedure: The different compounds were tested on an INS-1 beta-pancreatic line in order to evaluate their capability of potentializing the insulin secretion in response to glucose. Very briefly, the cells are cultivated in a culture medium, RPMI 1640 with 10 mM glucose containing 1 mM of sodium pyruvate, 50 μM of 2-mercaptoethanol, 2 mM of glutamine, 10 mM of HEPES, 100 IU/mL of penicillin, 100 μg/mL of streptomycin and 10% of inactivated fetal calf serum, as described by Asfari et al.. For the insulin secretion test, the INS-1 cells are sown and cultivated in 96-well plates. After 3 days of cultivation at 37° C. in a humid atmosphere (95% air/5% CO2), the medium is removed and the cells are incubated for 16 h in a medium containing 5 mM of glucose and 1% of inactivated fetal calf serum. On the day of the test, the cells are washed with a Krebs buffer (pH 7.4) containing 0.1% of bovine albumin and then pre-incubated for 30 min at 37° C. in this same buffer containing 2.8 mM of glucose. Finally, the cells are again washed with Krebs buffer and then incubated for 1 h in the buffer of the secretion test (Krebs, pH 7.4 containing 0.1% of bovine albumin and 3.5 mM of glucose and molecules to be evaluated). At the end of the test, the cell supernatant is recovered in order to measure therein the secreted insulin, by means of an ELISA kit using a rat anti-insulin antibody (ELISA Alpco Cat no. 80-INSRTH-E10). Each condition is tested in triplicate. The 3.5 mM glucose, the 10^−7M GLP-1 and the Forskoline 10^−7/IBMX 10^−5M mixtures are used as positive controls of the test. A compound stimulates the secretion of insulin if this factor is greater than or equal to 130% of the control for a given glucose dose.

[1] = test system: hepatocytes isolated from Wistar rat liver; assay: Test of inhibition of hepatic production of glucose (isolated hepatocytes, 3 h or 20 h incubation); assay type: cell-based; settings: for activity at 50 µM / activity at 100 µM: Rattus norvegicus, Hepatocyte; for activity at 50 µM: read-out: HGP % of ctrl @ 50 μM; for activity at 100 µM: read-out: HGP % of ctrl @ 100 μM
Procedure: The hepatocytes are isolated from Wistar rat liver having fasted for 24 h after perfusion of collagenase in the portal vein. The freshly isolated hepatocytes are sown in 6-well plates coated with collagen and containing an adhesion medium (Williams Medium). After adhesion, the medium is replaced with RPMI 1640 medium without any glucose, containing hydrocortisone (7.10^−5M) for a duration from 16 to 18 h. The next day, the glucose hepatic production test is conducted in a Krebs medium for 3 h. The basal conditions are cells incubated with only Krebs, the stimulated conditions are the cells placed in Krebs+lactate+pyruvate, the produced conditions are the cells exposed to chemical compounds in a Krebs/lactate/pyruvate medium. In the case when the compounds are dissolved in DMSO, all the conditions of the tests are met in the presence of a final concentration of 0.1% DMSO. The positive control of the test is the mercaptopicolinate known for its inhibitory action on hepatic production of glucose via the phosphoenolpyruvate carboxykinase. For short term treatments, the compounds are incubated for 3 h. For long term treatments, the compounds are incubated for 20 h at the moment when the hepatocytes are cultivated in RPMI and then added during the hepatic production test for 3 h. At the end of the 3 hours of incubation, the supernatant is recovered for measurement of glucose with a colorimetric method using glucose oxidase. The cells are lysed with a 0.1% NaOH aqueous solution in order to measure the amount of protein with the Lowry method. The results are expressed in mmols of glucose per mg of protein.

[2] = 3 h, hepatic glucose production, rat hepatocytes, 3 h incubation, compound at 50 μM
[3] = 3 h, hepatic glucose production, rat hepatocytes, 3 h incubation, compound at 100 μM

Molecule `CCOC(=O)Cc1cc(C(=O)c2ccoc2)sc1-c1ccc(OC)cc1` [compound 28, ethyl 2-(5-(furan-3-carbonyl)-2-(4-methoxyphenyl)thiophen-3-yl)acetate] has an activity at 10 µM (INS-1 cells) of 136% and an activity at 50 µM (INS-1 cells) of 138%.
With `CCOC(=O)Cc1cc(C(=O)c2ccco2)sc1-c1ccc(OC)cc1` [compound 22, ethyl 2-(5-(furan-2-carbonyl)-2-(4-methoxyphenyl)thiophen-3-yl)acetate] the activity at 10 µM (INS-1 cells) was 152% and the activity at 50 µM (INS-1 cells) was 207%.
`CC(C)OC(=O)Cc1cc(C(=O)c2ccco2)sc1-c1ccc(Cl)c(Cl)c1` [compound 39, isopropyl 2-(2-(3,4-dichlorophenyl)-5-(furan-2-carbonyl)thiophen-3-yl)acetate] showed an activity at 10 µM (INS-1 cells) of 143% and an activity at 50 µM (INS-1 cells) of 389%.
In the case of `O=C(O)Cc1cc(C(=O)c2ccccc2)sc1-c1ccc(Cl)cc1` [compound 154, 2-[5-benzoyl-2-(4-chlorophenyl)-3-thienyl]acetic acid], the activity at 50 µM [1, 2] is reported as 81% and the activity at 100 µM [1, 3] is reported as 63%.
`O=C(O)Cc1cc(C(=O)c2cccc(Cl)c2)sc1-c1ccccc1` [compound 49, 2-(5-(3-chlorobenzoyl)-2-phenyl-thiophen-3-yl)acetic acid] was tested, and the “inhibition of hepatic production of glucose” value (shortened to “inhibition”) ([1]; 3 h incubation, with two doses) was “strongest inhibitions”, the activity at 50 µM [1, 2] was 57% and the activity at 100 µM [1, 3] was 38%.
Molecule `COc1cccc(CNC(=O)c2cc(CC(=O)OC(C)C)c(-c3ccc(Cl)cc3)s2)c1` [compound 116, isopropyl 2-(2-(4-chlorophenyl)-5-((3-methoxybenzyl)-carbamoyl)thiophen-3-yl)acetate] has an activity at 50 µM [1, 2] of 62% and an activity at 100 µM [1, 3] of 67%.
`CCOC(=O)Cc1cc(C(=O)c2ccccc2OC)sc1-c1ccc(OC)cc1` [compound 23, ethyl 2-(5-(2-methoxybenzoyl)-2-(4-methoxyphenyl)thiophen-3-yl)acetate] showed an activity at 50 µM [1, 2] of 79% and an activity at 100 µM [1, 3] of 73%.
For `CCOC(=O)Cc1cc(C(=O)Cc2ccccc2)sc1-c1ccc(Cl)cc1` [compound 16, ethyl 2-(2-(4-chlorophenyl)-5-(2-phenylacetyl)thiophen-3-yl)acetate], the activity at 50 µM [1, 2] was 69% and the activity at 100 µM [1, 3] was 63%.
In the case of `CCOC(=O)Cc1cc(C(=O)c2cccc(OC)c2)sc1-c1ccc(Cl)cc1` [compound 12, ethyl 2-(2-(4-chlorophenyl)-5-(3-methoxybenzoyl)thiophen-3-yl)acetate], the activity at 50 µM [1, 2] is reported as 70% and the activity at 100 µM [1, 3] is reported as 53%.
With `COc1cc(Cl)ccc1C(=O)c1cc(CC(=O)O)c(-c2ccc(Cl)cc2)s1` [compound 156, 2-[5-(4-chloro-2-methoxy-benzoyl)-2-(4-chlorophenyl)-3-thienyl]acetic acid] the “inhibition” value ([1]; 3 h incubation, with two doses) was “strongest inhibitions”, the activity at 50 µM [1, 2] was 21% and the activity at 100 µM [1, 3] was 7%.
For `CCOC(=O)Cc1cc(C(=O)c2cccc(F)c2)sc1-c1ccc(OC)cc1` [compound 26, ethyl 2-(5-(3-fluorobenzoyl)-2-(4-methoxyphenyl)thiophen-3-yl)acetate], the activity at 50 µM [1, 2] was 86% and the activity at 100 µM [1, 3] was 71%.
`COc1ccc(C(=O)c2cc(CC(=O)NC(=N)N)c(-c3ccc(Cl)c(Cl)c3)s2)cc1` [compound 184, N-carbamimidoyl-2-[2-(3,4-dichlorophenyl)-5-(4-methoxybenzoyl)-3-thienyl]acetamide hydrochloride] showed an activity at 50 µM [1, 2] of 68% and an activity at 100 µM [1, 3] of 80%.
In the case of `COC(=O)Cc1cc(C(=O)c2ccc(OC)cc2)sc1-c1ccccc1` [compound 5, methyl 2-(5-(4-methoxybenzoyl)-2-phenylthiophen-3-yl)acetate], the activity at 50 µM [1, 2] is reported as 68% and the activity at 100 µM [1, 3] is reported as 50%.
With `COc1ccc(C(=O)c2cc(CC(=O)NO)c(-c3ccc(Cl)cc3)s2)cc1` [compound 100, 2-(2-(4-chlorophenyl)-5-(4-methoxybenzoyl)thiophen-3-yl)-N-hydroxyacetamide] the “inhibition” value ([1]; 20 h incubation, with two doses) was “strongest inhibitions”, the activity at 50 µM ([1]; 20 h, hepatic glucose production, rat hepatocytes, 20 h incubation, compound at 50 μM) was 43% and the activity at 100 µM ([1]; 20 h, hepatic glucose production, rat hepatocytes, 20 h incubation, compound at 100 μM) was 20%.
For `O=C(O)Cc1cc(C(=O)c2ccco2)sc1-c1ccccc1` [compound 48, 2-(5-(furan-2-carbonyl)-2-phenyl-thiophen-3-yl)acetic acid], the activity at 50 µM [1, 2] was 91% and the activity at 100 µM [1, 3] was 73%.
With `COc1ccc(C(=O)c2cc(CC(=O)NCCN(C)C)c(-c3ccc(Cl)c(Cl)c3)s2)cc1` [compound 166, 2-[2-(3,4-dichlorophenyl)-5-(4-methoxybenzoyl)-3-thienyl]-N-(2-dimethylaminoethyl)acetamide] the activity at 50 µM [1, 2] was 71% and the activity at 100 µM [1, 3] was 65%.
In the case of `COc1ccc(-c2sc(C(=O)CCc3ccccc3)cc2CC(=O)O)cc1` [compound 80, 2-(2-(4-methoxyphenyl)-5-(3-phenylpropanoyl)thiophen-3-yl)ace acetic acid], the activity at 50 µM [1, 2] is reported as 83% and the activity at 100 µM [1, 3] is reported as 67%.
For `O=C(O)Cc1cc(C(=O)c2ccco2)sc1-c1ccc(Cl)c(Cl)c1` [compound 159, 2-[2-(3,4-dichlorophenyl)-5-(furan-2-carbonyl)-3-thienyl]acetic acid], the “inhibition” value ([1]; 3 h incubation, at the dose of 50 μM) was “strongest inhibitions” and the activity at 50 µM [1, 2] was 40%.
Work on `COc1ccc(-c2sc(C(=O)c3ccccc3OC)cc2CC(=O)O)cc1` [compound 69, 2-(5-(2-methoxybenzoyl)-2-(4-methoxyphenyl)thiophen-3-yl)acetic acid] yielded an activity at 50 µM [1, 2] of 86% and an activity at 100 µM [1, 3] of 60%.
With `CCOC(=O)CN(C)C(=O)Cc1cc(C(=O)c2ccc(OC)cc2)sc1-c1ccccc1` [compound 87, ethyl 2-(2-(5-(4-methoxybenzoyl)-2-phenylthiophen-3-yl)-N-methylacetamido)acetate] the activity at 50 µM [1, 2] was 77% and the activity at 100 µM [1, 3] was 73%.
`O=C([O-])Cc1cc(C(=O)c2ccco2)sc1-c1ccc(Cl)cc1.[Na+]` [compound 82, sodium 2-(2-(4-chlorophenyl)-5-(furan-2-carbonyl)thiophen-3-yl)acetate] was tested, and the “HGP % of ctrl @ 50 μM” value ([1]; hepatic glucose production, rat hepatocytes, 3 h incubation, compound at 50 μM) was 67 % of ctrl and the “HGP % of ctrl @ 100 μM” value ([1]; hepatic glucose production, rat hepatocytes, 3 h incubation, compound at 100 μM) was 26 % of ctrl.
With `O=C(O)Cc1cc(C(=O)c2ccc(Cl)c(Cl)c2)sc1-c1ccc(Cl)cc1` [compound 57, 2-(2-(4-chlorophenyl)-5-(3,4-dichlorobenzoyl)thiophen-3-yl)acetic acid] the activity at 50 µM [1, 2] was 77% and the activity at 100 µM [1, 3] was 51%.
`CCOC(=O)Cc1cc(S(=O)(=O)c2ccc(OC)cc2)sc1-c1ccc(Cl)c(Cl)c1` [compound 174, ethyl 2-[2-(3,4-dichlorophenyl)-5-(4-methoxyphenyl)sulfonyl-3-thienyl]acetate] gave an activity at 50 µM [1, 2] of 73% and an activity at 100 µM [1, 3] of 77%.
With `CCOC(=O)Cc1cc(C(=O)NNC(=O)c2ccncc2)sc1-c1ccc(Cl)cc1` [compound 179, ethyl 2-[2-(4-chlorophenyl)-5-[(pyridine-4-carbonyl-amino)-carbamoyl]-3-thienyl]acetate] the activity at 50 µM [1, 2] was 91% and the activity at 100 µM [1, 3] was 69%.
With `O=C(O)Cc1cc(C(=O)Cc2ccc(F)cc2)sc1-c1ccccc1` [compound 54, 2-(5-(2-(4-fluorophenyl)acetyl)-2-phenylthiophen-3-yl)acetic acid] the activity at 50 µM [1, 2] was 85% and the activity at 100 µM [1, 3] was 74%.
`CCOC(=O)Cc1cc(C(=O)NNC(=O)c2cccc(OC)c2)sc1-c1ccc(Cl)cc1` [compound 178, ethyl 2-[2-(4-chlorophenyl)-5-[[(3-methoxybenzoyl)-amino]carbamoyl]-3-thienyl]acetate] was tested, and the activity at 50 µM [1, 2] was 92% and the activity at 100 µM [1, 3] was 72%.
